For assay [1], the system named is neuronally differentiated PC-12 cells. The experiment in a line: Protection from rotenone induced toxicity in neuronally differentiated PC-12 cells. The assay is classed as cell-based. The protocol: Rotenone is a complex I poison and is widely used in cell culture and animal models of PD. (20, 31, 32) To determine if PIP-1 protects cells from rotenone insult, PC-12 cells are neuronally differentiated (with neuronal growth factor β for 10 days) and then treated with 10 μM rotenone and a range of PIP-1 concentrations. After 72 hours, cell death is assessed using propidium iodide staining as measured by flow cytometry. […] To determine the features on PIP-1 that are important for PARG inhibition and cell protection, three derivatives are constructed that lacked key functionality (see FIG. 19 compounds labeled 3, 4 and 5).
Cell culture conditions: HL-60 and SK-N-SH cells are grown in RPMI 1640 media supplemented with 10% FBS and PC-12 cells are grown in RPMI 1640 media supplemented with 10% HS and 5% FBS. All cell lines are incubated at 37° C. in a 5% CO2, 95% air atmosphere. HL-60 cells are split every two to three days as needed and SK-N-SH cells are split when they reach approximately 90% confluency at a 1:6 ratio. SK-N-SH cells are differentiated by adding media containing 10 μM retinoic acid (in DMSO). Media is replaced every other day and cells are differentiated for a total of 12 days. PC-12 cells are differentiated by adding media containing 25 ng/mL Neuronal Growth Factro β. Media is replaced every other day and cells are differentiated for a total of 10 days. Differentiation is observed by microscopy.
Protection of Rotenone and MPP^+ induced toxicity in PC-12 and SK-N-SH cells: SK-N-SH and PC-12 cells are neuronally differentiated as described above. 10 μM rotenone, 10 μM MPP^+ and various concentrations of PIP-1 or its derivatives are added to the cells and incubated for 72 h. The cells are then washed in PBS and the viability is determined by adding propidium iodide to 1 μg/mL and measuring the fluorescent intensity of each cell by flow cytometry.

Assay [2] has as its system NAD^+ depletion in HL-60 cell lysate. The experiment in a line: Whole cell assay screen: NAD+ depletion in H2O2-activated HL-60 cell lysate. Type of assay: cell-based. The protocol: To identify a non-toxic, non-DNA intercalating, cell permeable small molecule inhibitor of PARG, a high-throughput screen is devised. Given the severe challenges in isolating enough of the PAR substrate for an in vitro screen directly for PARG inhibition, we develop a primary screen that utilizes cell lysates and, in particular, mammalian cell lysates. In this assay, HL-60 cells are treated with H2O2 to damage their DNA (which activates PARP-1) and then lyse the cells. In individual wells of a 384-well plate, this cell lysate is incubated with 22,000 different small molecules from an in-house compound collection; these compounds are either purchased (from ChemBridge Corp.) or collected from various sources at the University of Illinois. (28) NAD^+ levels are measured using a fluorescent method based on the chemical conversion of NAD^+ to a fluorescent product (29, 30) (FIG. 14A). The amount of NAD^+ consumed in each well is monitored, and any compounds that prevent NAD^+ consumption are classified “hits” in this primary screen.
Library screen: 12.5 μL of Lysing PARP buffer (50 mM Tris, 10 mM MgCl2, pH 8.0, 1% Triton X-100) containing 100 μM NAD^+ is added to each well of a 384-well plate. Library compounds at 10 mM in DMSO are transferred using a 384-well pin transfer device that delivers 0.1 μL. HL-60 cells are spun down at 200 g for 5 min. and resuspended in Lysing PARP buffer to a concentration of 8×10^6 cells/mL. 10 μL of a 30% H2O2 solution is added per mL of cells. 12.5 μL of the activated cell lysate is added to the plates. The plates are incubated for 60 min. at 37° C. The concentration of NAD^+ is then determined using a fluorescent assay^1. 10 μL of a 2 M KOH solution and 10 μL of a 20% acetophenone solution (in ethanol) is added to each well. The plate is then incubated at 4° C. for 10 min. 45 μL of a 88% formic acid solution was added to each well. The plate was then incubated for 5 min. in a 110° C. oven. Once the plate cools, the fluorescent intensity of each well is determined on a Criterion Analyst AD (Molecular Devices) with an excitation of 360 nm and an emission of 445 nm.

Like-named read-outs stand apart in the source and are kept apart here.

On to `Nc1c(Cl)cnn(-c2ccccc2)c1=O` [compound 5, 4-Amino-5-chloro-2-phenyl-2H-pyridazin-3-one], for which the “Protection of rotenone-treated neuronally differentiated PC-12 cells (in words)” value in assay [1] was “inactive”; in assay [1] (listed as analogue 5), “do not protect”. Also, the “Inhibition of NAD+ depletion in the whole cell assay” value in assay [2] is recorded as “do not inhibit NAD^+ depletion”.
For `CN(C)c1cnn(-c2ccccc2)c(=O)c1N` [PIP-1, 4-Amino-5-dimethylamino-2-phenyl-2H-pyridazin-3-one], the “Protection of rotenone-treated neuronally differentiated PC-12 cells (in words)” value in assay [1] was “protect”. In assay [1] (Rattus norvegicus, differentiated PC-12 cells, 10 μM rotenone, 72 h, read-out: EC50 (IC50) for protection from rotenone induced toxicity), the EC50 worked out at 5.36 µM. For the same compound, the “Inhibition of NAD+ depletion in the whole cell assay” value in assay [2] was “inhibit NAD^+ depletion”.

Broadly, the EC50 is the concentration that produces a half-maximal response.
